Assay results: PubChem BioAssay (NCI)
Where “and” joins values, the source holds several entries; their conditions need not be identical. Equal values may be shown once.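 Compound exposure: 48 hours, 5 concentrations, 96-well plates. GI50 marks 50% less growth. Definition used: TGI = concentration required for complete inhibition of growth.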

Key:
Experiment in all cases: inhibition of tumour cell growth, NCI panel, 48 h
786-0 renal = system: 786-0 renal
ACHN renal = system: ACHN renal
NCI-H23 lung = system: NCI-H23 lung
NCI-H522 lung = system: NCI-H522 lung
RPMI-8226 leukemia = system: RPMI-8226 leukemia
RXF 393 renal = system: RXF 393 renal
SF-295 CNS = system: SF-295 CNS
SK-MEL-28 melanoma = system: SK-MEL-28 melanoma
SK-MEL-5 melanoma = system: SK-MEL-5 melanoma
UACC-257 melanoma = system: UACC-257 melanoma

| SMILES | GI50 (786-0 renal) [µM] | TGI (786-0 renal) | GI50 (ACHN renal) [µM] | TGI (ACHN renal) | GI50 (NCI-H23 lung) [µM] | TGI (NCI-H23 lung) | GI50 (NCI-H522 lung) [µM] | TGI (NCI-H522 lung) | GI50 (RPMI-8226 leukemia) [µM] | TGI (RPMI-8226 leukemia) | GI50 (RXF 393 renal) [µM] | TGI (RXF 393 renal) | GI50 (SF-295 CNS) [µM] | TGI (SF-295 CNS) [µM] | GI50 (SK-MEL-28 melanoma) [µM] | TGI (SK-MEL-28 melanoma) [µM] | GI50 (SK-MEL-5 melanoma) [µM] | TGI (SK-MEL-5 melanoma) | GI50 (UACC-257 melanoma) [µM] | TGI (UACC-257 melanoma) |
| --- | --- | --- | --- | --- | --- | --- | --- | --- | --- | --- | --- | --- | --- | --- | --- | --- | --- | --- | --- | --- |
| CC1(C)N=C(N)N=C(N)N1c1ccc(CCCCc2ccc(Cl)c(S(=O)(=O)F)c2)c(Cl)c1 | 1.63 | > 39.7 µM | 6.56 | 21.1 µM | 0.843 | 19 µM | 0.71 | 13.3 µM | 0.527 | 3.32 µM | 5.93 | 27.8 µM | 0.995 | 10.6 | 1.96 | 16.5 | 0.471 | 11.8 µM | 3.78 | 18.4 µM |
| C/C(=N\NC(=S)N1CCCCCC1)c1ccccn1 | 0.0992 | 2.17 µM and 3.12 µM |  | 5.45 µM and 2.73 µM | < 0.0182 | 5.85 µM and 6.33 µM | 0.109 | 0.623 µM and 1.39 µM |  | 0.321 µM and 0.132 µM | 0.117 | 2.05 µM and 0.658 µM | 0.0137 | 2.3 |  | 0.295 | 0.0209 | 1.09 µM and 0.741 µM |  | 0.83 µM and 0.969 µM |
| C=C1C(=O)OC2CC(C)C(C(O)CC(C)O)=CCC12 (stereo unspecified) |  | 30.2 µM |  | 8.95 µM |  | 33.3 µM |  | 3.29 µM |  | 34.2 µM |  | 30.5 µM |  | > 100 |  | 23.1 |  | 41.2 µM |  | 29.8 µM |
| COc1ccc(Cn2c(N)c(S(=O)(=O)c3ccc(Cl)cc3)c3nc(C#N)c(C#N)nc32)cc1 | 3.33 | > 50 µM | 6.22 | > 50 µM | 17 | > 50 µM | 5.82 | > 50 µM | 22.5 | > 50 µM | 1.45 | 5.37 µM | 10.8 | > 50 | > 50 | > 50 | 49.4 | > 50 µM | > 50 | > 50 µM |
| COC(=O)C1=CN(CC2=CC(=O)C(C)=CC2=O)C=C(C(=O)OC)C1c1cccc(OC)c1 | > 22.5 | > 41 µM | 2.78 | 7.99 µM | 18.4 | 53.5 µM | 8.19 | > 31.9 µM | 1.95 | 5.06 µM | 17.4 | 39.8 µM | 10.3 | 26.4 | 25 | 79 | 14.4 | 42.2 µM | 16.3 | 31 µM |
| CN(C)c1ncnc2c1ncn2CCn1cnc2c(N(C)C)ncnc21 |  | > 100 µM |  | > 100 µM |  | > 100 µM |  | > 100 µM |  | > 100 µM |  | > 100 µM |  | > 100 |  | > 100 |  | > 100 µM |  | > 100 µM |
| CSc1ccccc1C#C/C=C\C#Cc1ccccc1N | 16.3 | 42.6 µM | 20.1 | > 100 µM | 13.1 | 37.3 µM | 0.527 | 32.4 µM | 2.72 | 12.7 µM | 24.5 | > 100 µM | 1.83 | 5.55 | 24.7 | 50.4 | 3.71 | 16.4 µM | 43.5 | > 100 µM |
| COc1ccc(-c2nnc(N3CCN(C(=O)CN4CCN(c5ccccc5)CC4)CC3)nc2-c2ccc(OC)cc2)cc1 | 5.37 | 29.3 µM | 3.92 | 21.7 µM | 6.92 | > 100 µM | 7.44 | > 100 µM | 2.06 | 5.16 µM | 3.36 | 22.4 µM | 5.83 | 47.7 | 14.3 | > 100 | 2.99 | > 100 µM | 6.17 | > 100 µM |
| COc1ccc(C2=C(c3ccc(OC)cc3)C(=O)N3CCCC3C2)cc1 (stereo unspecified) | 9.92 | > 100 µM | 15 | > 100 µM | 41.9 | > 100 µM | 14.1 | 96.8 µM | > 100 | > 100 µM | 17.7 | > 83.2 µM | 9.26 | > 100 | 54.6 | > 100 | 10.1 | 84.3 µM | 32.9 | > 100 µM |
| CN1CC[C@@H](c2c(O)cc(O)c3c(=O)cc(-c4ccc(C(F)(F)F)cc4Cl)oc23)[C@@H]1CO | 13.3 | 31.9 µM | 10.6 | 38 µM | 15.2 | 37.3 µM | 17.4 | 37.3 µM | 17.3 | 53.5 µM | 10.9 | 24.8 µM | 16.7 | 36.4 | 14.4 | 32.2 | 15.4 | 30.7 µM | 26.6 | 46.7 µM |
| O=[P@@]1(c2ccccc2)O[C@H](COCc2ccccc2)[C@@H](OCc2ccccc2)[C@H](OCc2ccccc2)[C@H]1NCc1ccccc1 | 3.03 | > 100 µM | 3.38 | > 100 µM | 3.66 | > 100 µM | 5.75 | > 100 µM | 2.97 | > 100 µM | 3.83 | > 100 µM | 2.05 | 6.68 | 4.48 | > 100 | 2.59 | 6.79 µM | 2.22 | 6.76 µM |
| Cn1c(Nc2ccc(C(F)(F)F)cc2)nc2cc(Oc3ccnc(-c4ncc(C(F)(F)F)[nH]4)c3)ccc21 | 2.22 | 13.9 µM | 0.0354 | 11.7 µM | 0.31 | 7.8 µM | 0.307 | 11 µM | 1.49 | 15.2 µM | 0.0544 | 7.32 µM | 0.402 | 11.8 | 0.126 | 4.79 | 0.34 | 4.96 µM | 0.131 | 0.977 µM |
| COc1ccccc1Nc1ncc(-c2ccccc2)o1 | > 25 | > 25 µM | > 25 | > 25 µM | > 25 | > 25 µM | > 25 | > 25 µM | > 25 | > 25 µM | > 25 | > 25 µM | > 25 | > 25 | > 25 | > 25 | > 25 | > 25 µM | > 25 | > 25 µM |
